{"source": "ChEMBL document CHEMBL2062464", "about": "“Allosteric modulation of seven transmembrane spanning receptors: theory, practice, and opportunities for central nervous system drug discovery” (J Med Chem, 2012)", "key": {"[1]": {"biological_target": "T1, Adenosine receptor A1 (Homo sapiens) (UniProt P30542)", "T1 sequence (whole entry)": "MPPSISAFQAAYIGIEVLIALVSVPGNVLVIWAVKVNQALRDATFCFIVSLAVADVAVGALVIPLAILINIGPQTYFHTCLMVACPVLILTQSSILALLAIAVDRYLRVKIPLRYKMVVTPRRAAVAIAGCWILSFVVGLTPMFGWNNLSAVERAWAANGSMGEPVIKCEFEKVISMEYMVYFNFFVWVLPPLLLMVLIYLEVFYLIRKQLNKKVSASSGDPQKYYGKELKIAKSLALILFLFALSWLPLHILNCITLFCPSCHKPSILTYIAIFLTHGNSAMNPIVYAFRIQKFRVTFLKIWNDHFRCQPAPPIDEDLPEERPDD", "experiment": "Allosteric modulation at adenosine A1 receptor assessed as receptor mediated ERK1/2 phosphorylation"}, "[2]": {"biological_target": "T2, Metabotropic glutamate receptor 5 (Homo sapiens, UniProt P41594)", "experiment": "Positive allosteric modulation activity at mGlu5 receptor"}, "[3]": {"biological_target": "Metabotropic glutamate receptor 6 (Homo sapiens, UniProt O15303)", "experiment": "Positive allosteric modulation activity at mGlu6 receptor"}, "[4]": {"biological_target": "Metabotropic glutamate receptor 7 (Homo sapiens, UniProt Q14831)", "sequence (Q14831 whole entry)": "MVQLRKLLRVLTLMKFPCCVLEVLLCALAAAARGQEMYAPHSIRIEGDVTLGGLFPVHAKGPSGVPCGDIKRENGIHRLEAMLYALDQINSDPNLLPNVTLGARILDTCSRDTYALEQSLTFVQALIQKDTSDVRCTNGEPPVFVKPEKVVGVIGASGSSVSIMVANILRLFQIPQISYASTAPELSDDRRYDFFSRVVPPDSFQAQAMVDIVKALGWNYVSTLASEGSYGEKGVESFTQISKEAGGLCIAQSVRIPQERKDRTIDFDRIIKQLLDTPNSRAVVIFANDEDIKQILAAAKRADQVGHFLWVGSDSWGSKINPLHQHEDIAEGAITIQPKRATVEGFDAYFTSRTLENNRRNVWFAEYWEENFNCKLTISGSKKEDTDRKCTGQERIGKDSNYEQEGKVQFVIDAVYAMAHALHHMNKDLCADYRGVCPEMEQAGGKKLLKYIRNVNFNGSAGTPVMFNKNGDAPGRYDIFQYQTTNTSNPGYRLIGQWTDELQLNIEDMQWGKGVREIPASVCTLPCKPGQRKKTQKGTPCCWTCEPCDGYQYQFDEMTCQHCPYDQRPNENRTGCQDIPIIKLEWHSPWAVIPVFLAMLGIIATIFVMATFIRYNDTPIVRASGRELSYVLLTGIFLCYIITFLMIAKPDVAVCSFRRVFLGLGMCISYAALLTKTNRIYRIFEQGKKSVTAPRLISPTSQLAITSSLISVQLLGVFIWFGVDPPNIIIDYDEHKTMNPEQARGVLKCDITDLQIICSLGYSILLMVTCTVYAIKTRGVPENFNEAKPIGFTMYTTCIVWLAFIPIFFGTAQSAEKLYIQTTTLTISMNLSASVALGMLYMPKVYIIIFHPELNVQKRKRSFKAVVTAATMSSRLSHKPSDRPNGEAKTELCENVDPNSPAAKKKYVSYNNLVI", "experiment": "Positive allosteric modulation activity at mGlu7 receptor"}, "[5]": {"biological_target": "Metabotropic glutamate receptor 8 (Homo sapiens, UniProt O00222)", "sequence (O00222 whole entry)": "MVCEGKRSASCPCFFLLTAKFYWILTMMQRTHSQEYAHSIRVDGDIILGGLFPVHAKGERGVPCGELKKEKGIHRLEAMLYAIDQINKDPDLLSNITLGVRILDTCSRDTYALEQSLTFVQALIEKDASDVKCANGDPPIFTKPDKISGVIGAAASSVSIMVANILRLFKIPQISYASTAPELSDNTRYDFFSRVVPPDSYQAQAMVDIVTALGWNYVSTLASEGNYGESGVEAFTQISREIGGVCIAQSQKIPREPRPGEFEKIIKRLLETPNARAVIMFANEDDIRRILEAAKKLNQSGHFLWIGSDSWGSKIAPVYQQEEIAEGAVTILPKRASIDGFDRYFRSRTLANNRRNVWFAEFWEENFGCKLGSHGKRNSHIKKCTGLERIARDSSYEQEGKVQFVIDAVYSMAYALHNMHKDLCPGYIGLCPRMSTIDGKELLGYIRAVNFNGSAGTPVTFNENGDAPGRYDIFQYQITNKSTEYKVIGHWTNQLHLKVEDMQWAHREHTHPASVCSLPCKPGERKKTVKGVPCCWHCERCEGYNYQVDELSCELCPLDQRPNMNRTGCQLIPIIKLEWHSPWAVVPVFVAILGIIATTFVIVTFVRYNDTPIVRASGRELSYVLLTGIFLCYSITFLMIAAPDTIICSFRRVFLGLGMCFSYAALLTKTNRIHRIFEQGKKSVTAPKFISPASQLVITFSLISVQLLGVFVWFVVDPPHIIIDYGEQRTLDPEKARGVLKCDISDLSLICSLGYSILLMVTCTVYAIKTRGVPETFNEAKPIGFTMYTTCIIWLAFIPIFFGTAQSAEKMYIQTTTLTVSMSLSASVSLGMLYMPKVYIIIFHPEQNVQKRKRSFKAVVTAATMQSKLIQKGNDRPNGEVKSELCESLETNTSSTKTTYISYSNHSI", "experiment": "Positive allosteric modulation activity at mGlu8 receptor"}, "[6]": {"biological_target": "Metabotropic glutamate receptor 4 (Homo sapiens) (UniProt Q14833)", "sequence (Q14833 whole entry)": "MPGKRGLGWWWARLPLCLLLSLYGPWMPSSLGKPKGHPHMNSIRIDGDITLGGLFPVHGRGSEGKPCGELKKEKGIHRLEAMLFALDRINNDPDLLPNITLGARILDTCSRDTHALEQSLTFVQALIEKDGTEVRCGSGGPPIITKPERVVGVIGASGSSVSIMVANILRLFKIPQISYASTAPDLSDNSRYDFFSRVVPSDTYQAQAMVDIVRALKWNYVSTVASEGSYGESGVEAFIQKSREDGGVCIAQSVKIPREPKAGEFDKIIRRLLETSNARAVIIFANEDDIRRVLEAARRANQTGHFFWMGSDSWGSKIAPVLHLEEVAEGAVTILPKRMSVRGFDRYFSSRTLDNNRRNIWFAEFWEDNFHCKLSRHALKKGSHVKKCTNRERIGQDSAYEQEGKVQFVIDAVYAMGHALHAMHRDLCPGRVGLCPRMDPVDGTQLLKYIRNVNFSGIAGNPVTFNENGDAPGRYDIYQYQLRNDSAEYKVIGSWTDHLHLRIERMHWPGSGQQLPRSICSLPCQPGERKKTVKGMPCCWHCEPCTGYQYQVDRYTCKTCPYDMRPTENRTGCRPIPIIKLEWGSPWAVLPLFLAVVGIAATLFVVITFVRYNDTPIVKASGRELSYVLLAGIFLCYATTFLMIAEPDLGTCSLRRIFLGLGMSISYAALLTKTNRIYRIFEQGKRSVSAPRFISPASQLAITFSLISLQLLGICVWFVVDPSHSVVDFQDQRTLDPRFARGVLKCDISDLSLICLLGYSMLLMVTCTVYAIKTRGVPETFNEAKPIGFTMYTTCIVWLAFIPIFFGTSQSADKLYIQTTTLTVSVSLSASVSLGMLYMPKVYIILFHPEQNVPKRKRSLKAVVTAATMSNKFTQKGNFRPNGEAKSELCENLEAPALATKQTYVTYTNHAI", "experiment": "Positive allosteric modulation activity at mGlu4 receptor relative to glutamate"}, "[7]": {"biological_target": "Metabotropic glutamate receptor 1 (Homo sapiens, UniProt Q13255)", "sequence (Q13255 whole entry)": "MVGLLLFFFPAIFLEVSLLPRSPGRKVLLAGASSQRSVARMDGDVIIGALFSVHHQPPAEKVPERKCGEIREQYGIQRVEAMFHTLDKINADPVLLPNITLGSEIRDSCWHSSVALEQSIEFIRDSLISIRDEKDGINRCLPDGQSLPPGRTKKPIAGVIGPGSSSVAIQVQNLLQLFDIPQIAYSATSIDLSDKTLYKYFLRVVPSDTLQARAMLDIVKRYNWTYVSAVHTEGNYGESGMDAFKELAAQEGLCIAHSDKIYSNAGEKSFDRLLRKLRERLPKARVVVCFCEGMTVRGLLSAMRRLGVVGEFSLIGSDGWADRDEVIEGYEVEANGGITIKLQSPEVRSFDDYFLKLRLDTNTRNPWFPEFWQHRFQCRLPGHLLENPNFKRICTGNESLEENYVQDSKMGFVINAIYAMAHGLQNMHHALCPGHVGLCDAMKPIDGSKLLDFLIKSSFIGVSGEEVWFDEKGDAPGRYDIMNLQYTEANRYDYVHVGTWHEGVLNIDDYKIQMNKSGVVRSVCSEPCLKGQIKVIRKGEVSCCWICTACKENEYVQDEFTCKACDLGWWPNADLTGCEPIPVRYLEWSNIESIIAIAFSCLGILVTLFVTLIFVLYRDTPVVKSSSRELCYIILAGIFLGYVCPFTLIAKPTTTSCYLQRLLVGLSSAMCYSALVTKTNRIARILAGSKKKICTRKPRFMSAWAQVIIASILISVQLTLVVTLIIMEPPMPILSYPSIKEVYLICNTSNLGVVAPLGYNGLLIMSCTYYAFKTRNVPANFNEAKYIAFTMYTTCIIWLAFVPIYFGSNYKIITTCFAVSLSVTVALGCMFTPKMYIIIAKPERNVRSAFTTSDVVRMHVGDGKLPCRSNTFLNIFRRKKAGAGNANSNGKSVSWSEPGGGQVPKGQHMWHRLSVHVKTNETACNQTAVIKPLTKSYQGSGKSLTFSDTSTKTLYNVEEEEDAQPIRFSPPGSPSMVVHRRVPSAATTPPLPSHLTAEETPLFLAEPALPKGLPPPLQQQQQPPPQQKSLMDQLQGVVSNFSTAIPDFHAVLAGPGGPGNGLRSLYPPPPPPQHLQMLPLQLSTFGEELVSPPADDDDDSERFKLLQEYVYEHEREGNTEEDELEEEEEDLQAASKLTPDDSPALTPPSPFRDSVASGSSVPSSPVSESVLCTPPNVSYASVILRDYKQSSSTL", "experiment": "Positive allosteric modulation activity at mGlu1 receptor"}, "[8]": {"biological_target": "Metabotropic glutamate receptor 2 (Homo sapiens, UniProt Q14416)", "experiment": "Positive allosteric modulation activity at mGlu2 receptor"}, "[9]": {"biological_target": "Metabotropic glutamate receptor 3 (Homo sapiens, UniProt Q14832)", "sequence (Q14832 whole entry)": "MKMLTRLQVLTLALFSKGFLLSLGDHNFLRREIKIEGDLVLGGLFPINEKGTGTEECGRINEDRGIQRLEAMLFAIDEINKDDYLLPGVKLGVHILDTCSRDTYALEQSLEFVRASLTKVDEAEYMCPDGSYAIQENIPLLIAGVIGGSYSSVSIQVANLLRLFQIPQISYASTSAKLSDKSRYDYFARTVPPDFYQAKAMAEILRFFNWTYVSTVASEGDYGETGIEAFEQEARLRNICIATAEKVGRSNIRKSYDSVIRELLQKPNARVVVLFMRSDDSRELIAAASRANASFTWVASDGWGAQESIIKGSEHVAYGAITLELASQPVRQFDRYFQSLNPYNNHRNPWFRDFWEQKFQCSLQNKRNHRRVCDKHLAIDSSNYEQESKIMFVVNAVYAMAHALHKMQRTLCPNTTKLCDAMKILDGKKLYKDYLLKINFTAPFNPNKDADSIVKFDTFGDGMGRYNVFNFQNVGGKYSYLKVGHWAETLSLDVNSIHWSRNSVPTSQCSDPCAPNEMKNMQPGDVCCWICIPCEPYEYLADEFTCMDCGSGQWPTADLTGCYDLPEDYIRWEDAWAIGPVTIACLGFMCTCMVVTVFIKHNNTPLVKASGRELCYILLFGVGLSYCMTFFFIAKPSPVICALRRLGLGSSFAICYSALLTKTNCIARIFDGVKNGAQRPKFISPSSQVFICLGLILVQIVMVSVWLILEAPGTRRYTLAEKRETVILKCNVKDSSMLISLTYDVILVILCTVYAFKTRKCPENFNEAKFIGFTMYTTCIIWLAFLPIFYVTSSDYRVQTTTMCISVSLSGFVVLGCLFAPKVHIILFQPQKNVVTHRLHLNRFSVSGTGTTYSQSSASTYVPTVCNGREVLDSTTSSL", "experiment": "Positive allosteric modulation activity at mGlu3 receptor"}, "[10]": {"biological_target": "T2, Metabotropic glutamate receptor 5", "experiment": "Positive allosteric modulation activity at mGlu5 receptor relative to glutamate"}, "[11]": {"biological_target": "T2, Metabotropic glutamate receptor 5", "experiment": "Negative allosteric modulation activity at mGlu5 receptor"}, "[12]": {"biological_target": "T3, Muscarinic acetylcholine receptor M1 (Homo sapiens, UniProt P11229)", "T3 sequence (P11229 whole entry)": "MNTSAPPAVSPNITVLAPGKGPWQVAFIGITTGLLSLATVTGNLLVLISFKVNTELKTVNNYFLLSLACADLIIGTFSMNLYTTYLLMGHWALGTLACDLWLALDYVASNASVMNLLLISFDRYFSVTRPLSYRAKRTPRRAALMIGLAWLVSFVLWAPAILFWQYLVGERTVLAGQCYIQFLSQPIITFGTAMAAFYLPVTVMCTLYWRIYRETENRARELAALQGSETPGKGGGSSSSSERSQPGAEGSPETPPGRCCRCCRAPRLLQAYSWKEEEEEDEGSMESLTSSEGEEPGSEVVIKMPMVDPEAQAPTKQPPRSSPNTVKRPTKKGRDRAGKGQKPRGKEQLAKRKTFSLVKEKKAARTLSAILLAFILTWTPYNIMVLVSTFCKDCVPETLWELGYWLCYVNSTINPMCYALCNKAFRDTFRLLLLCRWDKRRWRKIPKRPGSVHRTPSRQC", "experiment": "Positive allosteric modulation activity at muscarinic M1 receptor"}, "[13]": {"biological_target": "T4, Muscarinic acetylcholine receptor M1 (Homo sapiens) (UniProt P11229)", "T4 sequence (whole entry)": "T3 sequence (P11229 whole entry)", "experiment": "Positive allosteric modulation activity at muscarinic M1 receptor relative to acetylcholine"}, "[14]": {"biological_target": "Muscarinic acetylcholine receptor M3 (Homo sapiens) (UniProt P20309)", "experiment": "Positive allosteric modulation activity at muscarinic M3 receptor relative to acetylcholine"}, "[15]": {"biological_target": "T5, Muscarinic acetylcholine receptor M5 (Homo sapiens) (UniProt P08912)", "T5 sequence (whole entry)": "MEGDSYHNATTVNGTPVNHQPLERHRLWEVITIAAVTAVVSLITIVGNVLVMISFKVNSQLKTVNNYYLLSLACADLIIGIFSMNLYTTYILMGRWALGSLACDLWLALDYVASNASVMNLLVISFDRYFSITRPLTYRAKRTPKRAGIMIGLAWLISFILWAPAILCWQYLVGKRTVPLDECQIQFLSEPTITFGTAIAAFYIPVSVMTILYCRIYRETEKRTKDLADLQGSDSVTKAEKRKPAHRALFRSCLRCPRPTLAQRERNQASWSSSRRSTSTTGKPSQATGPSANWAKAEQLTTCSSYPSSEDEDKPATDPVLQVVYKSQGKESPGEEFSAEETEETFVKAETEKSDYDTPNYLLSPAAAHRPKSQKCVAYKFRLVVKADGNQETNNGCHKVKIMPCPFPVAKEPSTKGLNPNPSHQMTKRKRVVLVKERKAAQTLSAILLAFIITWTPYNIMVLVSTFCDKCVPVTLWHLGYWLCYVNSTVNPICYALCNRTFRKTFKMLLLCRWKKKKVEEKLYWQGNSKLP", "experiment": "Positive allosteric modulation activity at muscarinic M5 receptor relative to acetylcholine"}}}
{"smiles": "CCOC(=O)c1nn(-c2cccc(Cl)c2)c(=O)c2c(N)scc12", "values": [{"measurement": "pKb", "setting": "[1]", "value": 8.3}]}
{"smiles": "O=C(Nc1ccccn1)[C@]12C[C@H]1/C(=N\\O)c1ccccc1O2", "values": [{"measurement": "EC50", "setting": "[2]", "value": "> 30", "unit": "µM"}, {"measurement": "EC50", "setting": "[3]", "value": "> 30", "unit": "µM"}, {"measurement": "EC50", "setting": "[4]", "value": "> 30", "unit": "µM"}, {"measurement": "EC50", "setting": "[5]", "value": "> 30", "unit": "µM"}, {"measurement": "Emax", "setting": "[6]", "value": 121, "unit": "%"}, {"measurement": "EC50", "setting": "[7]", "value": "> 30", "unit": "µM"}, {"measurement": "EC50", "setting": "[8]", "value": "> 30", "unit": "µM"}, {"measurement": "EC50", "setting": "[9]", "value": "> 30", "unit": "µM"}]}
{"smiles": "Nc1sc2c(c1C(=O)c1ccccc1)CCCCCC2", "values": [{"measurement": "pKb", "setting": "[1]", "value": 5.08}]}
{"smiles": "Nc1scc(-c2cccc(C(F)(F)F)c2)c1C(=O)c1ccc(Cl)cc1", "values": [{"measurement": "pKb", "setting": "[1]", "value": 5.74}]}
{"smiles": "Nc1scc(-c2cc(C(F)(F)F)cc(C(F)(F)F)c2)c1C(=O)c1ccc(Cl)cc1", "values": [{"measurement": "pKb", "setting": "[1]", "value": 5.46}]}
{"smiles": "Cc1ccc(C#Cc2cncnc2)cc1", "values": [{"measurement": "EC50", "setting": "[2]", "value": 3.3, "unit": "µM"}, {"measurement": "Emax", "setting": "[10]", "value": 99, "unit": "%"}]}
{"smiles": "Nc1sc(-c2cncnc2)c2c1C(=O)c1ccccc1-2", "values": [{"measurement": "pKb", "setting": "[1]", "value": 6.67}]}
{"smiles": "Nc1sc2c(c1C(=O)c1ccc(Cl)cc1)CC1C=CC=CC1C2", "note": "(stereo unspecified)", "values": [{"measurement": "pKb", "setting": "[1]", "value": 6.01}]}
{"smiles": "Nc1scc(-c2cccc(C(F)(F)F)c2)c1C(=O)c1ccccc1", "values": [{"measurement": "pKb", "setting": "[1]", "value": 6.37}]}
{"smiles": "Cc1cccc(C#Cc2cncnc2)c1", "values": [{"measurement": "IC50", "setting": "[11]", "value": 7.5, "unit": "nM"}]}
{"smiles": "Nc1scc(-c2cc(C(F)(F)F)cc(C(F)(F)F)c2)c1C(=O)c1ccccc1", "values": [{"measurement": "pKb", "setting": "[1]", "value": 5.22}]}
{"smiles": "Nc1sc2c(c1C(=O)c1ccc(Cl)cc1)CC1C=C(C(F)(F)F)C=CC1C2", "note": "(stereo unspecified)", "values": [{"measurement": "pKb", "setting": "[1]", "value": 5.12}]}
{"smiles": "CNc1ncc(C#Cc2ccccc2)cn1", "values": [{"measurement": "Emax", "setting": "[10]", "value": 128, "unit": "%"}]}
{"smiles": "Cn1cc(-c2ccc(Cn3cc(C(=O)O)c(=O)c4c(F)cccc43)c(F)c2)cn1", "values": [{"measurement": "EC50", "setting": "[12]", "value": 41, "unit": "nM"}]}
{"smiles": "Nc1sc2c(c1C(=O)c1ccc(Cl)cc1)CCCC2", "values": [{"measurement": "pKb", "setting": "[1]", "value": 5.49}]}
{"smiles": "O=C(O)c1cn(Cc2ccc(-c3ccccc3)cc2)c2c(F)ccc(F)c2c1=O", "values": [{"measurement": "EC50", "setting": "[12]", "value": 270, "unit": "nM"}]}
{"smiles": "Cn1cc(-c2ccc(CN3C(=O)C(=O)c4ccccc43)c(F)c2)cn1", "values": [{"measurement": "Emax", "setting": "[13]", "value": 65, "unit": "%"}]}
{"smiles": "Nc1scc(-c2cccc(F)c2)c1C(=O)c1ccc(Cl)cc1", "values": [{"measurement": "pKb", "setting": "[1]", "value": 5.88}]}
{"smiles": "Nc1scc(-c2ccccc2F)c1C(=O)c1ccc(Cl)cc1", "values": [{"measurement": "pKb", "setting": "[1]", "value": 5.1}]}
{"smiles": "CCOC(=O)c1c(N)sc2c1CCN(C(=O)OC(C)(C)C)CC2", "values": [{"measurement": "pKb", "setting": "[1]", "value": 6.07}]}
{"smiles": "O=C1C(=O)N(Cc2ccc(Br)cc2)c2ccccc21", "values": [{"measurement": "Emax", "setting": "[13]", "value": 82, "unit": "%"}, {"measurement": "Emax", "setting": "[14]", "value": 66, "unit": "%"}, {"measurement": "Emax", "setting": "[15]", "value": 74, "unit": "%"}]}
{"smiles": "Nc1sc(-c2cncnc2)cc1C(=O)c1ccccc1", "values": [{"measurement": "pKb", "setting": "[1]", "value": 5.82}]}
{"smiles": "O=C(O)c1cn(Cc2ccc(-c3ccccc3)cc2)c2cccc(F)c2c1=O", "values": [{"measurement": "EC50", "setting": "[12]", "value": 84, "unit": "nM"}]}
{"smiles": "C(#Cc1cncnc1)c1ccccc1", "values": [{"measurement": "IC50", "setting": "[11]", "value": 486, "unit": "nM"}]}
{"smiles": "CC(C)(C)OC(=O)N1CCc2sc(N)c(C(=O)c3ccc(Cl)cc3)c2CC1", "values": [{"measurement": "pKb", "setting": "[1]", "value": 5.23}]}
{"smiles": "O=C1C(=O)N(Cc2ccc(Oc3ccccc3)cc2)c2ccc(OC(F)(F)F)cc21", "values": [{"measurement": "Emax", "setting": "[15]", "value": 75, "unit": "%"}]}
{"smiles": "Nc1sc2c(c1C(=O)c1ccc(Cl)cc1)CC1C=CC(C(F)(F)F)=CC1C2", "note": "(stereo unspecified)", "values": [{"measurement": "pKb", "setting": "[1]", "value": 5.11}]}
{"smiles": "Cc1ccc(C(=O)c2c(N)sc3c2CCCC3)cc1", "values": [{"measurement": "pKb", "setting": "[1]", "value": 5.1}]}
{"smiles": "COc1ccc(CN2C(=O)C(=O)c3cc(OC(F)(F)F)ccc32)cc1", "values": [{"measurement": "Emax", "setting": "[15]", "value": 91, "unit": "%"}]}
{"smiles": "O=C(O)c1cn(Cc2ccc(-c3ccccc3)cc2)c2c(F)cccc2c1=O", "values": [{"measurement": "EC50", "setting": "[12]", "value": 380, "unit": "nM"}]}
{"smiles": "Nc1sc(-c2ccccc2)cc1C(=O)c1ccccc1", "values": [{"measurement": "pKb", "setting": "[1]", "value": 6.36}]}
